Values joined by “and” are separate entries in the source; they are usually repeats but may differ in a detail not shown here. Equal values may be shown once. Read-outs that look alike come from different tables or passages of the source.
How the values were obtained:
Rat single dose PK study = format: in vivo; settings: 1 mg/kg; for concentration at 4 h: oral
Protocol: Rat Single Dose PK Study (Inhibition of CSF Aβ40 in Wistar Rats)
The rat single dose PK study was described in H. Hilpert et al., J. Med. Chem. 2013, 56, 3980-3995 (dx.doi.org/10.1021/jm400225m) with slight modifications.
(§1) Blood is transferred into a labeled EDTA-K2 Eppendorf tube and the sample is mixed by inverting the tubes several times. Blood is stored at −20° C.

Plasma Aβ40 = assay: Cynomolgus monkey plasma Aβ40 determination; format: in vivo, Cynomolgus monkey (Macacaca fascicularis)
From the text: Cynomolgus Monkey (Macacaca fascicularis) Single Dose PK Study and Plasma Aβ40 Determination
Blood and plasma collection will always be performed in the treatment cage. The animal care keeper grabs either one arm or one leg through the bars. The hairs are shaved for better visibility of the vein. The blood vessel is squeezed, the vein is punctured by using a butterfly and blood is taken. Once enough blood has been withdrawn a cotton swab is placed over the injection site and the needle is gently removed. Bleeding is stopped by pressing a cotton swab on the wound. Plasma samples were taken between 5 min and 48 h.
as §1
Aβ determination in cynomolgous plasma samples was done after solid phase extraction (Lanz, T. et al., J. of Neuroscience Methods, 2006, 157:71-81). Frozen plasma samples were thawed in a 25° C. waterbath. […] Once samples were dried, they were stored at −80° C. or measured immediately. […]
Aβ concentration was determined following a modified protocol from Perkin-Elmer with a commercially available antibody against the N-terminal part of cynomolgus Aβ (6E10, Signet IG-39340) and an in-house C-terminal specific anti-Aβ40 antibody (BAP-24, Brockhaus M. et al., J. Neuroreport, 1998, 9:1481-1486). […]

hERG channel = hERG channel (Homo sapiens, UniProt Q12809); assay: hERG patch liner assay; format: cell-based
Sequence of hERG channel (Q12809 whole entry): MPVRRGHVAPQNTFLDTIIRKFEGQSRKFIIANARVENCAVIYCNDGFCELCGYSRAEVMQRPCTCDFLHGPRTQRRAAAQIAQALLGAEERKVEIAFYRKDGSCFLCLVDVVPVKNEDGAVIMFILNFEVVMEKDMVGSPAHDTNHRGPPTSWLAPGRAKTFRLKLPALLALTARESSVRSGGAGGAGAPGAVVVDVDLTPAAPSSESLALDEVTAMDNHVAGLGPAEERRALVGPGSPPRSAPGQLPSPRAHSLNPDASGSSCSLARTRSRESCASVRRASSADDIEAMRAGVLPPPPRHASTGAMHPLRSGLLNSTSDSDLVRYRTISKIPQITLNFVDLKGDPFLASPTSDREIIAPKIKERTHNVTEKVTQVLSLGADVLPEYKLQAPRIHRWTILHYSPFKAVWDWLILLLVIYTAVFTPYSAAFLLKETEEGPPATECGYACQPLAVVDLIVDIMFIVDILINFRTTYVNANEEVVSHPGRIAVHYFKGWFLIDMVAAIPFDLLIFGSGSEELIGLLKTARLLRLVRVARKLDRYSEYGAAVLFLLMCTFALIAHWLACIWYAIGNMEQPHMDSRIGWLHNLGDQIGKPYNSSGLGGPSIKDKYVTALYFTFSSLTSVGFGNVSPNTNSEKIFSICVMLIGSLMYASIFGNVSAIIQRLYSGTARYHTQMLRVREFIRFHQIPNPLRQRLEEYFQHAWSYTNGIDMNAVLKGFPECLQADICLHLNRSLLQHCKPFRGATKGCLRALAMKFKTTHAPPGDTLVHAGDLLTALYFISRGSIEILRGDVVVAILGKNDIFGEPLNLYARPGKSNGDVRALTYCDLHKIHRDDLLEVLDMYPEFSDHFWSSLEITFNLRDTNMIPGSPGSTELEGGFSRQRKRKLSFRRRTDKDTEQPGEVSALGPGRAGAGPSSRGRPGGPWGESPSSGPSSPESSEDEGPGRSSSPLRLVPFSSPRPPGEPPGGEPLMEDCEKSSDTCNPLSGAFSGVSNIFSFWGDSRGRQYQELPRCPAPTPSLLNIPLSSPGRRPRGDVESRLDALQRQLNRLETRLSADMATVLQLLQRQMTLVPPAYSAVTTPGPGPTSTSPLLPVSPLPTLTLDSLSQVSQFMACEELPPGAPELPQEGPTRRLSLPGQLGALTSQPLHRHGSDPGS
From the text: The methods to determine the hERG IC20 patch liner values were described in Toward a New Gold Standard for Early Safety: Automated Temperature-Controlled hERG Test on the PatchLiner. Polonchuk L., Front Pharmacol. 2012 Jan. 26; 3:3. (doi: 10.3389/fphar.2012.00003. eCollection 2012.) PMID:22303293

Mouse P-gp = Mouse P-gp (Mus musculus, UniProt P21447); assay: P-gp transport assay (mouse); format: in vitro ADME; settings: efflux ratio
Sequence of Mouse P-gp (P21447 whole entry): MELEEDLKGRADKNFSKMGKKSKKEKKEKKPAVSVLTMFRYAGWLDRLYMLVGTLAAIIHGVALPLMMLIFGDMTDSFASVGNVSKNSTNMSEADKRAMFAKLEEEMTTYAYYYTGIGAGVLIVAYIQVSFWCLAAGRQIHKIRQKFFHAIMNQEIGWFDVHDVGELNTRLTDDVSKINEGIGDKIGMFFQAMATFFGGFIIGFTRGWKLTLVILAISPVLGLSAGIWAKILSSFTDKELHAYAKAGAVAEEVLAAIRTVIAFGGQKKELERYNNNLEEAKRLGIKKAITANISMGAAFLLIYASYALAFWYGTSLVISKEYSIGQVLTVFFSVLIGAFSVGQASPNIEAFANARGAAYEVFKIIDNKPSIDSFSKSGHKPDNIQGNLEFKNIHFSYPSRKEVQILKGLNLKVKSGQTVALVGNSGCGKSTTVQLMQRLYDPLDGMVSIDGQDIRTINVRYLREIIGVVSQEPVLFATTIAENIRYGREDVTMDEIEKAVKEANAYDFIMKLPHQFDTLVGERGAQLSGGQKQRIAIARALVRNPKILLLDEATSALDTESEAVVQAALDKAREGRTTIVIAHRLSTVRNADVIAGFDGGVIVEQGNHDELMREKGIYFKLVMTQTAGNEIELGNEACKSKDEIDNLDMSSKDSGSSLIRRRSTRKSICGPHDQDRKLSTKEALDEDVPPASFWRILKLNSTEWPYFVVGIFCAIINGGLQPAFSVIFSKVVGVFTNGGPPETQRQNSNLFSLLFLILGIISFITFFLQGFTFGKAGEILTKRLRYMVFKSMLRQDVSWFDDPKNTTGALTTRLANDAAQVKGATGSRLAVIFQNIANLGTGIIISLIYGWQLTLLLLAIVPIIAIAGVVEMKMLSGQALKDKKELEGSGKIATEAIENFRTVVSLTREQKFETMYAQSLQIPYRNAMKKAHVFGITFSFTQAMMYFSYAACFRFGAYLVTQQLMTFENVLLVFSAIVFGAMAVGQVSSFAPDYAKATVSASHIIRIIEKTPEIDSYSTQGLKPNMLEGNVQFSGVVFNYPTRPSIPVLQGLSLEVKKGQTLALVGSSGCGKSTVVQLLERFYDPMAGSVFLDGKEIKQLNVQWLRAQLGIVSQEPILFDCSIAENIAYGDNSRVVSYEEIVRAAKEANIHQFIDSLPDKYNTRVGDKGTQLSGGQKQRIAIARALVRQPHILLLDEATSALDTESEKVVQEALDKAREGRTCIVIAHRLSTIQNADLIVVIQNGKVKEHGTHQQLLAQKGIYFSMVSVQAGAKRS
From the text: P-Gp Transport Assay (Human and Mouse) (P-Gp Assay)
In the assay of the P-gp efflux ratio ER as described hereinabove, a compound with ER<2.5 is regarded most suitable. In addition, compounds with low hERG channel binding are suitable as well.

BACE1 = BACE1 (Homo sapiens, UniProt P56817); assay: BACE1 KD SPR assay; format: binding; settings: Surface Plasmon Resonance
Sequence of BACE1 (P56817 46-501): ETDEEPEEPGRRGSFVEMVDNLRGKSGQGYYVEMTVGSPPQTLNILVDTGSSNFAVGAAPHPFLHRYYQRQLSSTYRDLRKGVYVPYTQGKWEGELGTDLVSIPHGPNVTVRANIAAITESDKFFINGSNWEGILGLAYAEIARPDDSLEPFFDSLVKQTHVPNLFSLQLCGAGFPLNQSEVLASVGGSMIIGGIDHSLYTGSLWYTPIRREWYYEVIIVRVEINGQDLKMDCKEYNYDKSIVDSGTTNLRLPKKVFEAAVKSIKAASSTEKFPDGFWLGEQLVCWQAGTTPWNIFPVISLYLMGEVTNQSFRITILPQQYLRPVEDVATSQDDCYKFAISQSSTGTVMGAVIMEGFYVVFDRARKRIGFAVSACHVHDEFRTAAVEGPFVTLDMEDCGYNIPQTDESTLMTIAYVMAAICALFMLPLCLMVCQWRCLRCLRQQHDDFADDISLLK
Protocol: Surface Plasmon Resonance measurements were performed on a Biacore T200 instrument. Immobilization of BACE-1 was performed by standard amine coupling chemistry on a CMS sensor to achieve protein surface density of ˜8000 pg/mm2 (RU). Immobilization was performed using the acetate buffer (25 mM Na acetate, 150 mM NaCl, 0.01% P20, 3 mM EDTA, pH 4.5) as the running buffer at 25° C. In the first step the carboxyl groups of CMS sensor surface were transformed to the reactive succinimide esters by contacting the sensor surface 7 minutes with a solution of 0.2 M N-ethyl-N-dimethylaminopolycarboodiimide (EDC) and 0.05 M N-hydroxysuccinimide (NHS). After the activation, the sensor surface was contacted with (˜5 μgml-1 BACE1 protein solution in 10 mM sodium acetate coupling buffer (pH 4.5) to reach desired protein surface density. Finally, the excess of activated carboxylic groups on the surface was quenched with ethanolamine (1 M, pH 8.5, 7 min).
Binding assays were performed at 18° C. under the same buffer conditions as immobilization of the protein. Compounds were dissolved in DMSO as 10 mM stocks and diluted in running buffer to perform titration series (5 concentrations with dilution factor of 2) on a protein and reference (activated and deactivated CMS sensor surface) surfaces in parallel.

BACE2 = target: T1, BACE2 (Homo sapiens, UniProt Q9Y5Z0); assay: BACE2 cell-free assay (BACE2 enzyme assay); format: biochemical; settings: for BACE2/BACE1 IC50 ratio: BACE2 IC50 divided by BACE1 IC50, cell free assays
T1 sequence (Q9Y5Z0 63-518): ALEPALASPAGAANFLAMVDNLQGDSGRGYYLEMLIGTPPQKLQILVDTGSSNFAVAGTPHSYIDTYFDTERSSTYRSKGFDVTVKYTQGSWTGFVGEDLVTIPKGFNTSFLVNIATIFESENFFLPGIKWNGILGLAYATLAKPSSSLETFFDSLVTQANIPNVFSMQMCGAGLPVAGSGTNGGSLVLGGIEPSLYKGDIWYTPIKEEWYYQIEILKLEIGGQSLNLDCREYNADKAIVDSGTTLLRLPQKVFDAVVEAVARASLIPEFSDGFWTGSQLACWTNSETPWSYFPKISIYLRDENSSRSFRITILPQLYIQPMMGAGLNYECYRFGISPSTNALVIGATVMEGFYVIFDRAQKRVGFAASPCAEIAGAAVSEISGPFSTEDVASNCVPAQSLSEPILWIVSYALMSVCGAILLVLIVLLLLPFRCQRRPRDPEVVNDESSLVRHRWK
From the text: BACE2 Cell-Free Assay (BACE2 Enzyme Assay)
Selectivity versus related targets is important in terms of safety of a drug candidate. BACE2 is a close homolog of BACE1. BACE2 was recently reported to play a crucial role in pigmentation of the skin by processing pigment cell-specific melanocyte protein (PMEL). (Proc Natl Acad Sci USA. 2013 Jun. 25; 110(26):10658-63. doi: 10.1073/pnas.1220748110. Epub 2013 Jun. 10). It is believed that PMEL contributes in melanogenesis. Therefore, selectivity versus BACE2 is advantageous when it comes to pigmentation of the skin. The selectivity ratio of BACE2/BACE1 IC50 was calculated by dividing the BACE2 IC50 value by the BACE1 IC50 value determined each in the cell free assay. […] This implies a 3-fold improvement of example 1 compared to comparators 4 and 5.

Plasma concentration at 4 h, free (Rat single dose PK study; 4 h, free unbound): 12.5 nM
Plasma concentration at 4 h (Rat single dose PK study; 4 h, total): 90.2 nM
concentration at 4 h (Rat single dose PK study; Wistar, plasma, 4 h, free unbound, read-out: Plasma concentration at 4 h, free): 12.5 nM
concentration at 4 h (Rat single dose PK study; Wistar, plasma, 4 h, free, read-out: Plasma concentration at 4 h, free): 41 ng/mL
concentration at 4 h (Rat single dose PK study; Wistar, plasma, 4 h, total, read-out: Plasma concentration at 4 h): 90 nM and 41 ng/mL
bioavailability (Rat single dose PK study; Wistar, plasma, po, read-out: Oral Bioavailability F): 62%
Mouse P-gp ER (Mouse P-gp): 3.5
Kd (BACE1; 18° C., pH 4.5): 0.002 µM
residence time (BACE1; t1/2=0.693/koff): 16 min
improvement of BACE2/BACE1 selectivity compared to comparators 4 and 5 (BACE2): 3 fold
BACE2/BACE1 IC50 ratio (BACE2): 2.0
BACE2/BACE1 IC50 ratio (BACE2; listed as example 1): 2
Structure (SMILES): Cc1cc(C#N)cnc1C(=O)Nc1ccc(F)c([C@@]2(C)N=C(N)O[C@H](C(F)(F)F)[C@@H]2F)n1 [Example 1, N-(6-((4R,5R,6S)-2-amino-5-fluoro-4-methyl-6-(trifluoromethyl)-5,6-dihydro-4H-1,3-oxazin-4-yl)-5-fluoropyridin-2-yl)-5-cyano-3-methylpicolinamide]
Plasma Aβ-lowering 0.2 mg/kg at 24 h (Plasma Aβ40; 24 h post dose): 57%
Plasma Aβ-lowering 0.2 mg/kg at 48 h (Plasma Aβ40; 48 h post dose): 50%
improvement of the hERG safety margin versus comparator 6 (hERG channel; at approximately 80% reduction of Aβ40 in rat CSF): 17 fold
IC20 (hERG channel; human, hERG patchliner assay): 2.34 µM

Source: patent publication US20190055231A1, “BACE1 INHIBITORS” (Hoffmann-La Roche Inc., priority 2016, published 2019)
